Experimental findings from ChEMBL document CHEMBL1201862, “PubChem BioAssay data set” (2004) are described below.

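48-hour exposure; five concentrations; linearly interpolated endpoints. The concentration for 50% growth inhibition is given as GI50.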 Active and inactive are the calls of the source. Rule as the data show it: active = GI50 up to about 1.1 µM and inactive = higher.

Some test systems named below: SK-MEL-28; HL-60; MDA-MB-435; HT-29; EKVX; RXF 393; COLO 205; HOP-62; SF-539; LOX IMVI; U-251; T47D; OVCAR-4; BT-549; IGROV-1; UO-31; DU-145; PC-3; MCF7.
Common to all, as to assay: NCI anticancer screen, dose series, 48 h

For `Cc1ccc2c(c1)[nH]c(=S)n2C=C(C(N)=O)C(N)=O`, the GI50 with SK-MEL-28 was > 100 µM (inactive); in the test on HL-60, 5.66 µM (inactive); with MDA-MB-435, > 100 µM (inactive); in the test on HT-29 it was > 100 µM (inactive); in the test on EKVX, 33.3 µM (inactive); in the test with RXF 393, > 100 µM (inactive). In addition, the GI50 in the test on COLO 205, with HOP-62, in the test on SF-539, in the test with LOX IMVI, in the test with U-251 and with T47D was > 100 µM (inactive) each time. For the same compound, the GI50 in the test on OVCAR-4, in the test on BT-549, in the test with IGROV-1, in the test on UO-31 and with DU-145 was > 100 µM (inactive) in each case.
As for `Cc1cc(C)c2c(c1)C/C(=C\c1cccc(C)c1C(=O)O)C2=O`, the GI50 in the test with PC-3 was 39.5 µM (inactive); in the test on SK-MEL-28, 87.9 µM (inactive); in the test with HL-60, > 100 µM (inactive); with HT-29, 72.6 µM (inactive); in the test on EKVX it was 60.7 µM (inactive); in the test with RXF 393 it was 72.9 µM (inactive). Besides, the GI50 in the test with HOP-62 is 55 µM (inactive); in the test with SF-539, 37.2 µM (inactive); in the test on LOX IMVI, 69.5 µM (inactive); in the test on T47D, > 100 µM (inactive); in the test with OVCAR-4 it was 75 µM (inactive); with BT-549, 42.9 µM (inactive). The figures for the GI50 with IGROV-1, in the test with UO-31 and in the test on DU-145 were 50.7 µM (inactive), 39.6 µM (inactive) and 52.2 µM (inactive), respectively.
With `COC(=O)C(Cc1c(C2Nc3ccccc3C2CC(NC(=O)CNC(C)=O)C(=O)OC)[nH]c2ccccc12)NC(=O)CNC(C)=O` (centres undefined), the GI50 in the test on SK-MEL-28 was > 100 µM (inactive); in the test on HL-60, > 26.6 µM (inactive); in the test on MDA-MB-435, > 100 µM (inactive); in the test with HT-29 it was > 100 µM (inactive); in the test on EKVX, > 100 µM (inactive); with RXF 393, > 100 µM (inactive). Also, the GI50 in the test with COLO 205, in the test on SF-539, in the test on LOX IMVI, in the test on U-251, with T47D and in the test on OVCAR-4 was > 100 µM (inactive) throughout. The GI50 in the test with BT-549, in the test on IGROV-1, in the test on MCF7, in the test on UO-31 and in the test on DU-145 was > 100 µM (inactive) in each case.
In the case of `O=C(OCC(Cl)(Cl)Cl)N1CC[C@H](C2CCCCC2)C1`, the GI50 in the test on PC-3 was 21.6 µM (inactive); in the test on EKVX it was 16.9 µM (inactive); with RXF 393, 19.5 µM (inactive); in the test on COLO 205, 18.8 µM (inactive); with HOP-62, 18.3 µM (inactive); in the test with LOX IMVI it was 19.5 µM (inactive). For the same compound, the GI50 was 1.09 µM (active) with U-251; 15.3 µM (inactive) in the test on T47D; 16.6 µM (inactive) in the test on OVCAR-4; 24.2 µM (inactive) in the test with BT-549; 16.4 µM (inactive) in the test with IGROV-1; 18.6 µM (inactive) with MCF7. The GI50 in the test on UO-31 was 17.6 µM (inactive); in the test with DU-145, 15.8 µM (inactive).
Regarding `COC(=O)C1CCC(=O)N1C(c1cc(OC)c(OC)c(OC)c1)c1cccc2ccccc12` (centres undefined), the GI50 in the test with PC-3 is > 100 µM (inactive); in the test on SK-MEL-28, > 100 µM (inactive); in the test on HL-60, 11.7 µM (inactive); in the test with MDA-MB-435, 63.2 µM (inactive); with HT-29, 35.6 µM (inactive); in the test with EKVX, > 100 µM (inactive). For the same compound, the GI50 in the test on HOP-62, in the test with SF-539, in the test on LOX IMVI, in the test on U-251, in the test with T47D and in the test on IGROV-1 was > 100 µM (inactive) each time. For the same compound, the results for the GI50 in the test with MCF7, with UO-31 and with DU-145 were > 100 µM (inactive), 61.2 µM (inactive) and > 100 µM (inactive), respectively.
With `C/C=C/C(C/C=C(\C)CO[Si](C)(C)C(C)(C)C)O[Si](C)(C)C(C)(C)C` (centres undefined), the GI50 in the test on PC-3, in the test with SK-MEL-28, in the test with HL-60, in the test on MDA-MB-435, in the test on HT-29 and in the test on EKVX was > 100 µM (inactive) in each case. The GI50 with RXF 393, with COLO 205, in the test with HOP-62, in the test on SF-539, in the test with LOX IMVI and in the test with T47D was > 100 µM (inactive) throughout. For the same compound, the GI50 in the test on OVCAR-4, in the test with IGROV-1, with MCF7, with UO-31 and in the test on DU-145 was > 100 µM (inactive) each time.
Consider `Cn1c(=O)nc2n(CCO)c(-c3ccccc3)c(-c3ccccc3)nc-2c1=O`, for which the GI50 with PC-3, in the test on SK-MEL-28, in the test on MDA-MB-435, in the test with HT-29, in the test with EKVX and in the test on RXF 393 was > 100 µM (inactive) in each case. Besides, the GI50 with COLO 205, in the test with HOP-62, in the test with SF-539, with LOX IMVI, with U-251 and with T47D was > 100 µM (inactive) throughout. In addition, the GI50 with OVCAR-4, in the test on BT-549, with IGROV-1, in the test on UO-31 and in the test with DU-145 was > 100 µM (inactive) throughout.
As for `[C-]#[N+]C1(C(=O)OCC)CC1`, the GI50 in the test with PC-3, in the test on SK-MEL-28, in the test on HL-60, with MDA-MB-435, in the test on HT-29 and with EKVX was > 100 µM (inactive) throughout. In addition, the GI50 in the test with RXF 393, in the test with HOP-62, with SF-539, in the test with LOX IMVI, in the test on U-251 and with T47D was > 100 µM (inactive) each time. Further, the GI50 in the test with OVCAR-4, with IGROV-1, in the test on MCF7 and with DU-145 was > 100 µM (inactive) each time.
For the compound `Cc1ccc(C(O)c2cnc(C)n2Cc2ccccc2)cc1` (centres undefined), the GI50 in the test with PC-3 is > 100 µM (inactive); with SK-MEL-28 it was > 100 µM (inactive); in the test on HL-60, 6.43 µM (inactive); in the test with MDA-MB-435, > 100 µM (inactive); in the test on HT-29, > 100 µM (inactive); with EKVX it was > 100 µM (inactive). For the same compound, the GI50 in the test on RXF 393, with COLO 205, with HOP-62, with SF-539, in the test on LOX IMVI and in the test on U-251 was > 100 µM (inactive) throughout. The GI50 in the test on OVCAR-4, in the test with BT-549, in the test with IGROV-1, in the test with MCF7, in the test with UO-31 and in the test with DU-145 was > 100 µM (inactive) throughout.
In the case of `CS/C(=N/S(=O)(=O)c1ccc(Cl)cc1)NCCCN/C(=N\S(=O)(=O)c1ccc(Cl)cc1)SC`, the GI50 in the test on PC-3 was 4.62 µM (inactive); in the test on SK-MEL-28, 25.8 µM (inactive); in the test on HL-60, 8.38 µM (inactive); in the test on MDA-MB-435, 9.42 µM (inactive); in the test on HT-29, 22.8 µM (inactive); with EKVX, 12.7 µM (inactive). In addition, the GI50 in the test with COLO 205 was 21.5 µM (inactive); with HOP-62, 24.8 µM (inactive); in the test on SF-539, 64 µM (inactive); in the test with LOX IMVI it was 14 µM (inactive); in the test on U-251 it was 29.4 µM (inactive); with T47D it was 7.35 µM (inactive). Further, the GI50 in the test on OVCAR-4 is 3.56 µM (inactive); in the test on IGROV-1, 30.4 µM (inactive); in the test on MCF7, 8.28 µM (inactive); in the test with UO-31, 13 µM (inactive); in the test on DU-145 it was 23.6 µM (inactive).
As to `O=[N+]([O-])/C(C(Cl)=C(Cl)Cl)=C1\NCCO1`, the GI50 with PC-3 is > 100 µM (inactive); in the test with SK-MEL-28, > 100 µM (inactive); in the test with HL-60 it was 81.5 µM (inactive); in the test on MDA-MB-435, > 100 µM (inactive); with HT-29 it was > 100 µM (inactive); with EKVX, > 100 µM (inactive). The GI50 with RXF 393 was 90.4 µM (inactive); with COLO 205, > 100 µM (inactive); in the test on HOP-62, > 100 µM (inactive); in the test with SF-539, > 100 µM (inactive); in the test with LOX IMVI, > 100 µM (inactive); in the test on U-251, > 100 µM (inactive). Moreover, the GI50 was 59.4 µM (inactive) with T47D; 35.1 µM (inactive) in the test with OVCAR-4; > 100 µM (inactive) in the test on IGROV-1; > 100 µM (inactive) in the test on MCF7; > 100 µM (inactive) with UO-31; > 100 µM (inactive) in the test with DU-145.
As to `CCN(CC)CCC1CCCCN1CC(=O)N1c2cc(Cl)ccc2NC(=O)CC1C` (centres undefined), the GI50 in the test on PC-3, in the test on SK-MEL-28, in the test with HL-60, with MDA-MB-435, in the test with HT-29 and in the test with EKVX was > 100 µM (inactive) each time. For the same compound, the GI50 in the test with RXF 393, with COLO 205, in the test with HOP-62, in the test on SF-539, in the test on LOX IMVI and in the test on U-251 was > 100 µM (inactive) in each case. In addition, the GI50 in the test with T47D, with OVCAR-4, in the test with IGROV-1, in the test with MCF7, in the test with UO-31 and with DU-145 was > 100 µM (inactive) throughout.
